Experimental data reported in patent EP0194793A2, “9-Acyl tylosin derivatives” (Omura, Satoshi, priority 1985, dated 1986).
In brackets after ≈: the same amount, converted by molar mass. Read-outs that look alike come from different tables or passages of the source.

Experiments:
[1] = tested on: Bacillus subtilis KB-143(IFO 3001); test: Minimum inhibitory concentration, nutrient agar dilution; assay type: cell-based
Procedure: (§1) Experiment 1: Minimum Inhibitory Concentration (µg/ml)
(§2) The tylosin derivatives obtained in Examples 1 through 9 were tested for their minimum inhibitory concentrations against gram-positive and gram-negative bacteria. The tests were conducted in conventional manner by inoculating varying concentrations of the test sample on a nutrient agar test medium and incubating at 37°C for 18-20 hours. The concentrations of the test samples inhibiting the bacteria growth were measured in µg per ml as a minimum inhibitory concentration.

[2] = tested on: Escherichia coli KB213 (NIHJ); test: as above; assay type: cell-based; settings: 37°C, 18-20 hours; for MIC: read-out: Minimum Inhibitory Concentrations
Procedure: as §1, §2

[3] = tested on: Klebsiella pneumoniae KB13(PCI 602); test: as above; assay type: cell-based; settings: for MIC: read-out: Minimum Inhibitory Concentrations
Procedure: as §1, §2

[4] = tested on: Micrococcus luteus KB212 (ATCC 9341); test: as above; assay type: cell-based
Procedure: as §1, §2

[5] = tested on: Staphylococcus aureus KB-210 (ATC 65380); test: as above; assay type: cell-based; settings: for MIC: read-out: Minimum Inhibitory Concentrations
Procedure: as §1, §2

[6] = tested on: S. pyrogenes C203; test: In vivo activity in infected mice
Procedure: Experiment 2: In vivo Activity
The compounds obtained in Examples 2 and 4 were separately administered subcutaneously or orally to mice infected with S. pyrogenes C203. The in vivo activity was measured as ED50 (mg/kg x 2).

[7] = Bacillus subtilis KB-143(IFO 3001), nutrient agar, 37°C, 18-20 hours
[8] = Klebsiella pneumoniae KB13(PCI 602), nutrient agar, 37°C, 18-20 hours
[9] = Micrococcus luteus KB212 (ATCC 9341), nutrient agar, 37°C, 18-20 hours
[10] = Staphylococcus aureus KB-210 (ATC 65380), nutrient agar, 37°C, 18-20 hours

Row | Compound | Minimum Inhibitory Concentrations [1, 7] [µg/mL] | Minimum Inhibitory Concentrations [2] [µg/mL] | Minimum Inhibitory Concentrations [3, 8] [µg/mL] | Minimum Inhibitory Concentrations [4, 9] [µg/mL] | Minimum Inhibitory Concentrations [5, 10] [µg/mL] | further results
1 | 9-0-Acetyl-9-dihydrotylosin [Example 1] | 0.2 | >100 | 100 | <0.1 | 1.56 | 
2 | 9-0-Benzoyl-9-dihydrotylosin [Example 4] | 0.2 | >100 | >100 | <0.1 | 0.78 | 
3 | 9-0-Acetyl-9-dihydrodemycarosyltylosin [Example 5] | 1.56 | >50 | >50 | 0.2 | 1.56 | 
4 | 9-0-Benzoyl-9-dihydrodemycarosyltylosin [Example 8] | 1.56 | >100 | >100 | 0.2 | 1.56 | 
5 | CCC1OC(=O)CC(O)C(C)C(OC2OC(C)C(O)C(N(C)C)C2O)C(CC=O)CC(C)C(=O)C=CC(C)=CC1COC1OC(C)C(O)C(OC)C1OC (stereo not drawn) [Detyl, Demycarosyltylosin, reference compound] |  |  |  |  |  | MIC ([1]; IFO3001, Bacillus subtilis KB-143(IFO 3001), nutrient agar, 37°C, 18-20 hours, read-out: Minimum Inhibitory Concentrations): 3.12 µg/mL (≈ 4.04 µM); MIC [2]: > 100 µg/mL; MIC [3, 8]: 100 µg/mL (≈ 130 µM); MIC ([4]; ATCC9341, Micrococcus luteus KB212 (ATCC 9341), nutrient agar, 37°C, 18-20 hours, read-out: Minimum Inhibitory Concentrations): 0.2 µg/mL (≈ 0.259 µM); MIC [5, 10]: 3.12 µg/mL (≈ 4.04 µM)
6 | 9-0-Propionyl-9-dihydrodemycarosyltylosin [Example 6] | 1.56 | >100 | >100 | 0.2 | 1.56 | 
7 | CC[C@H]1OC(=O)C[C@@H](O)[C@H](C)[C@@H](O[C@@H]2O[C@H](C)[C@@H](O[C@H]3C[C@@](C)(O)[C@@H](O)[C@H](C)O3)[C@H](N(C)C)[C@H]2O)[C@@H](CC=O)C[C@@H](C)C(=O)/C=C/C(C)=C/[C@@H]1CO[C@@H]1O[C@H](C)[C@@H](O)[C@@H](OC)[C@H]1OC [Tyl, Tylosin] |  |  |  |  |  | MIC ([1]; Bacillus subtilis, IFO3001, read-out: Minimum Inhibitory Concentrations): 0.78 µg/mL (≈ 0.851 µM); MIC [2]: > 100 µg/mL; MIC ([3]; Klebsiella pneumoniae): > 100 µg/mL; MIC ([4]; Micrococcus luteus, ATCC9341, read-out: Minimum Inhibitory Concentrations): 0.2 µg/mL (≈ 0.218 µM); MIC ([5]; Staphylococcus aureus): 1.56 µg/mL (≈ 1.7 µM); ED50 ([6]; Mus musculus, po): 50 mg/kg; ED50 ([6]; Mus musculus, sc): 1 mg/kg
8 | 9-0-Butyryl-9-dihydrotylosin [Example 3] | 0.4 | 100 | 100 | <0.1 | 1.56 | 
9 | 9-0-Butyryl-9-dihydrodemycarosyltylosin [Example 7] | 1.56 | >50 | >50 | 0.2 | 1.56 | 
10 | 9-0-Propionyl-9-dihydrotylosin [Example 2] | 0.2 | >100 | >100 | <0.1 | 0.78 | ED50 ([6]; Oral, mice infected with S. pyrogenes C203): 12.5 mg/kg x 2; ED50 ([6]; Subcutaneous, mice infected with S. pyrogenes C203): 2.5 mg/kg x 2
